One test deals with T1, PI3K alfa (Homo sapiens, UniProt P42336).
T1 construct: His tag (C); made in house; host or cells: baculovirus BV1075; Tn5 (Trichoplusia ni) or TiniPro insect cells
Nature of the test: PI3K alpha kinase assay (Kinase-Glo luminescence). The test is classed as biochemical. In outline: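 IC50 values come from a four-parameter logistic fit of percent inhibition at eight concentrations, typically 10 to 0.003 μM. Recombinant PI3Kα at 10 nM turned over 1 μM ATP with 10 μg/mL PI for 60 min at room temperature, and residual ATP was measured by Kinase-Glo.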
In general terms: Kinase-Glo reads ATP consumption through a luciferase reaction.

Test [1] relates to S6 Ribosomal Protein phosphorylation Ser235/236 in TSC1 null mouse embryo fibroblast (MEF) cells. The experiment in a line: Reverse protein array, S6 Ribosomal Protein phosphorylation in TSC1 null MEF cells. Format: cell-based. The note with it: 1 h, TSC1-/- MEFs, 60 minutes. In outline:
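Phospho-S6 (Ser235/236) was quantified by reverse protein array of cell lysates with a phospho-specific primary antibody. […]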

Read-outs that look alike come from different tables or passages of the source.

T1 sequence (P42336 with tags, fused parts or gaps limits assumed): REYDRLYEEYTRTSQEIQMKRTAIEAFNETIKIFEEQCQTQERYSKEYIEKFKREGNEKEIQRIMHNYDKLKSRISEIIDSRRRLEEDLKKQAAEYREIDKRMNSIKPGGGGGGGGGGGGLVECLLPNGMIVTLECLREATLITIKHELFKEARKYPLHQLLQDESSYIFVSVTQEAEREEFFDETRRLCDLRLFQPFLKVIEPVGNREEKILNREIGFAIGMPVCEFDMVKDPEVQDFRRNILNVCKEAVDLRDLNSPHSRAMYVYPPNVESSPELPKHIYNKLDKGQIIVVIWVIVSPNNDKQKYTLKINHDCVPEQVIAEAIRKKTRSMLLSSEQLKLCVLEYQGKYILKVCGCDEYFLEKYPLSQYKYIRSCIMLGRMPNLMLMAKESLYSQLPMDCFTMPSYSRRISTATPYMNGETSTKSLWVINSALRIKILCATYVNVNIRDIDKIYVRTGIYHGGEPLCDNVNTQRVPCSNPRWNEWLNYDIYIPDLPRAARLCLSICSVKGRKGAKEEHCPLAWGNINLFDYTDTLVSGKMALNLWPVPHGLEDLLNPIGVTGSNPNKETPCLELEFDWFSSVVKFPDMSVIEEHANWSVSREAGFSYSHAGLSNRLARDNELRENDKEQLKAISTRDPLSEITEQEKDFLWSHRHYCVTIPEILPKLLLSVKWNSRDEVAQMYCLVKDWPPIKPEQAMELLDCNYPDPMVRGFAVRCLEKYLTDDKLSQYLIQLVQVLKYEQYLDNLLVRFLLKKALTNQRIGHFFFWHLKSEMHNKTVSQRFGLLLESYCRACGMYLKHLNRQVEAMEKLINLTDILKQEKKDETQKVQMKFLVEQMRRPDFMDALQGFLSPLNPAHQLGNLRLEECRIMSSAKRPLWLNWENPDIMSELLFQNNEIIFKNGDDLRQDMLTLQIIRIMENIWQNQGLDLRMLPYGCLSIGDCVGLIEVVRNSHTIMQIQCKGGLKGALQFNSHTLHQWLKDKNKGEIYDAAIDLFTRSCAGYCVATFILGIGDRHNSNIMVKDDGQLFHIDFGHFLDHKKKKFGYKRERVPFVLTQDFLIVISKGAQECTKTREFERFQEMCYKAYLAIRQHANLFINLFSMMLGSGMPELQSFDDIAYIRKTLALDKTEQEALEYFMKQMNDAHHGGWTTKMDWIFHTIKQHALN

As to `CNc1ncc(-c2ccc3ncc4c(c3c2)n(-c2cccnc2C)c(=O)n4C)cn1` [Example 2.2, 3-Methyl-8-(2-methylamino-pyrimidin-5-yl)-1-(2-methyl-pyridin-3-yl)-1,3-dihydro-imidazo[4,5-c]quinolin-2-one], the IC50 on PI3K alfa (read-out: PI3Kalfa/IC50) turned out to be 26 nM; in test [1] (read-out: p-S6) it was 5.33 nM.
On the same counts, the results for `Cc1ncccc1-n1c(=O)n(C)c2cnc3ccc(-c4cnc5c(ccn5C)c4)cc3c21` [Example 2.14, 3-Methyl-1-(2-methyl-pyridin-3-yl)-8-(1-methyl-1H-pyrrolo[2,3-b]pyridin-5-yl)-1,3-dihydro-imidazo[4,5-c]quinolin-2-one] are 34 nM and 8.74 nM.
For the compound `CCOc1cc(-c2ccc3ncc4c(c3c2)n(-c2cccnc2C)c(=O)n4C)cnc1C` [Example 2.22, 8-(5-Ethoxy-6-methyl-pyridin-3-yl)-3-methyl-1-(2-methyl-pyridin-3-yl)-1,3-dihydro-imidazo[4,5-c]quinolin-2-one], the IC50 at PI3K alfa (read-out: EPK_PI3Kalfa/IC50) came to 81 nM; in test [1] (read-out: p-S6 IC50) it was 12 nM.
On the same counts, the results for `CCNc1cc(-c2ccc3ncc4c(c3c2)n(-c2ccc(F)nc2C)c(=O)n4C)cnc1CO` [Example 7.9, 8-(5-Ethylamino-6-hydroxymethyl-pyridin-3-yl)-1-(6-fluoro-2-methyl-pyridin-3-yl)-3-methyl-1,3-dihydro-imidazo[4,5-c]quinolin-2-one] are 20 nM and 5 nM.
On the same counts, the results for `CNc1cc(-c2ccc3ncc4c(c3c2)n(-c2ccc(F)nc2C)c(=O)n4C)cnc1CO` [Example 7.11, 1-(6-Fluoro-2-methyl-pyridin-3-yl)-8-(6-hydroxymethyl-5-methylamino-pyridin-3-yl)-3-methyl-1,3-dihydro-imidazo[4,5-c]quinolin-2-one] are 17 nM and 7 nM.
On the same counts, the results for `CCOCc1cc(-c2ccc3ncc4c(c3c2)n(-c2ccc(F)nc2C)c(=O)n4C)cnc1N` [Example 7.15, 8-(6-Amino-5-ethoxymethyl-pyridin-3-yl)-1-(6-fluoro-2-methyl-pyridin-3-yl)-3-methyl-1,3-dihydro-imidazo[4,5-c]quinolin-2-one] are 59 nM and 8 nM.
As to `Cc1nc(F)ccc1-n1c(=O)n(C)c2cnc3ccc(-c4cncc(N)c4)cc3c21` [Example 7.16, 8-(5-Amino-pyridin-3-yl)-1-(6-fluoro-2-methyl-pyridin-3-yl)-3-methyl-1,3-dihydro-imidazo[4,5-c]quinolin-2-one], the IC50 on PI3K alfa (read-out: EPK_PI3Kalfa/IC50) amounted to 101 nM; in test [1] (read-out: p-S6 IC50), 26 nM.
For `Cc1nc(F)ccc1-n1c(=O)n(C)c2cnc3ccc(-c4cnc(N)c(CO)c4)cc3c21` [Example 7.17, 8-(6-Amino-5-hydroxymethyl-pyridin-3-yl)-1-(6-fluoro-2-methyl-pyridin-3-yl)-3-methyl-1,3-dihydro-imidazo[4,5-c]quinolin-2-one], in that order: 64 nM and 5 nM.
As for `COc1ccc(-n2c(=O)n(C)c3cnc4ccc(-c5cnc(N)c(C(F)(F)F)c5)cc4c32)c(OC)n1` [Example 8.1, 8-(6-Amino-5-trifluoromethyl-pyridin-3-yl)-1-(2,6-dimethoxy-pyridin-3-yl)-3-methyl-1,3-dihydro-imidazo[4,5-c]quinolin-2-one], the IC50 was found to be 11 nM on PI3K alfa (read-out: PI3Kalfa/IC50) and 1.07 nM in test [1] (read-out: p-S6).
Turning to `COCCOc1cc(-c2ccc3ncc4c(c3c2)n(-c2ccc(OC)nc2OC)c(=O)n4C)cnc1C` [Example 8.9, 1-(2,6-Dimethoxy-pyridin-3-yl)-8-[5-(2-methoxy-ethoxy)-6-methyl-pyridin-3-yl]-3-methyl-1,3-dihydro-imidazo[4,5-c]quinolin-2-one], the results for the IC50 (at PI3K alfa (read-out: EPK_PI3Kalfa/IC50); in test [1] (read-out: p-S6 IC50)) were 11 nM and 4 nM, respectively.
Take `COc1ccc(-n2c(=O)n(C)c3cnc4ccc(-c5ccc6nccn6c5)cc4c32)c(OC)n1` [Example 8.10, 1-(2,6-Dimethoxy-pyridin-3-yl)-8-imidazo[1,2-a]pyridin-6-yl-3-methyl-1,3-dihydro-imidazo[4,5-c]quinolin-2-one]: the IC50 at PI3K alfa (read-out: EPK_PI3Kalfa/IC50) was determined as 80 nM; in test [1] (read-out: p-S6 IC50), 6.8 nM.
On the same counts, the results for `COCc1ncc(-c2ccc3ncc4c(c3c2)n(-c2ccc(OC)nc2OC)c(=O)n4C)cc1OC` [Example 8.12, 1-(2,6-Dimethoxy-pyridin-3-yl)-8-(5-methoxy-6-methoxymethyl-pyridin-3-yl)-3-methyl-1,3-dihydro-imidazo[4,5-c]quinolin-2-one] are 41 nM and 4 nM.
As to `COc1nc(N2CCNCC2)ccc1-n1c(=O)n(C)c2cnc3ccc(-c4cnc(N(C)C)nc4)cc3c21` [Example 9.4, 8-(2-Dimethylamino-pyrimidin-5-yl)-1-(2-methoxy-6-piperazin-1-yl-pyridin-3-yl)-3-methyl-1,3-dihydro-imidazo[4,5-c]quinolin-2-one], the IC50 was found to be 15 nM at PI3K alfa (read-out: EPK_PI3Kalfa/IC50) and 6 nM in test [1] (read-out: p-S6 IC50).
On the same counts, the results for `CCNc1cc(-c2ccc3ncc4c(c3c2)n(-c2ccc(OC)nc2C)c(=O)n4C)cnc1C` [Example 11.7, 8-(5-Ethylamino-6-methyl-pyridin-3-yl)-1-(6-methoxy-2-methyl-pyridin-3-yl)-3-methyl-1,3-dihydro-imidazo[4,5-c]quinolin-2-one] are under 3 nM and 2 nM.
On the same counts, the results for `CCN(C)c1ccc(-n2c(=O)n(C)c3cnc4ccc(-c5ccc(NC)nc5)cc4c32)c(C)n1` [Example 12.1, 1-[6-(Ethyl-methyl-amino)-2-methyl-pyridin-3-yl]-3-methyl-8-(6-methylamino-pyridin-3-yl)-1,3-dihydro-imidazo[4,5-c]quinolin-2-one] are 36 nM and under 0.457 nM.
Take `CCNc1cc(-c2ccc3ncc4c(c3c2)n(-c2ccc(N(C)CC)nc2C)c(=O)n4C)cnc1C` [Example 12.2, 8-(5-Ethylamino-6-methyl-pyridin-3-yl)-1-[6-(ethyl-methyl-amino)-2-methyl-pyridin-3-yl]-3-methyl-1,3-dihydro-imidazo[4,5-c]quinolin-2-one]: the results for the IC50 (at PI3K alfa (read-out: EPK_PI3Kalfa/IC50); in test [1] (read-out: p-S6 IC50)) were 15 nM and 3 nM, respectively.
On the same counts, the results for `CCOc1ccc(-c2ccc3ncc4c(c3c2)n(-c2ccc(OCCOC)nc2C)c(=O)n4C)cn1` [Example 13.1, 8-(6-Ethoxy-pyridin-3-yl)-1-[6-(2-methoxy-ethoxy)-2-methyl-pyridin-3-yl]-3-methyl-1,3-dihydro-imidazo[4,5-c]quinolin-2-one] are 158 nM and 18 nM.
For `COCCOc1ccc(-n2c(=O)n(C)c3cnc4ccc(-c5cnc(N)c(C(F)(F)F)c5)cc4c32)c(C)n1` [Example 13.2, 8-(6-Amino-5-trifluoromethyl-pyridin-3-yl)-1-[6-(2-methoxy-ethoxy)-2-methyl-pyridin-3-yl]-3-methyl-1,3-dihydro-imidazo[4,5-c]quinolin-2-one], in that order: 36 nM and 1 nM.
On the same counts, the results for `CNc1ccc(-c2ccc3ncc4c(c3c2)n(-c2ccc(OCCOC)nc2C)c(=O)n4C)cn1` [Example 13.3, 1-[6-(2-Methoxy-ethoxy)-2-methyl-pyridin-3-yl]-3-methyl-8-(6-methylamino-pyridin-3-yl)-1,3-dihydro-imidazo[4,5-c]quinolin-2-one] are 31 nM and 3 nM.
Consider `CCNc1cc(-c2ccc3ncc4c(c3c2)n(-c2ccc(OCCOC)nc2C)c(=O)n4C)cnc1C` [Example 13.4, 8-(5-Ethylamino-6-methyl-pyridin-3-yl)-1-[6-(2-methoxy-ethoxy)-2-methyl-pyridin-3-yl]-3-methyl-1,3-dihydro-imidazo[4,5-c]quinolin-2-one], for which the results for the IC50 (on PI3K alfa (read-out: EPK_PI3Kalfa/IC50); in test [1] (read-out: p-S6 IC50)) were 13 nM and 1 nM, respectively.
On to `CNc1ncc(-c2ccc3ncc4c(c3c2)n(-c2ccc(OCCOC)nc2C)c(=O)n4C)cn1` [Example 13.5, 1-[6-(2-Methoxy-ethoxy)-2-methyl-pyridin-3-yl]-3-methyl-8-(2-methylamino-pyrimidin-5-yl)-1,3-dihydro-imidazo[4,5-c]quinolin-2-one], for which the IC50 on PI3K alfa (read-out: EPK_PI3Kalfa/IC50) turned out to be 43 nM; in test [1] (read-out: p-S6 IC50), 1.1 nM.
On the same counts, the results for `CCOc1ccc(-c2ccc3ncc4c(c3c2)n(-c2ccc(C)nc2C)c(=O)n4C)cn1` [Example 14.2, 1-(2,6-Dimethyl-pyridin-3-yl)-8-(6-ethoxy-pyridin-3-yl)-3-methyl-1,3-dihydro-imidazo[4,5-c]quinolin-2-one] are 43 nM and 16 nM.
Turning to `Cc1ccc(-n2c(=O)n(C)c3cnc4ccc(-c5cnc(N(C)C)nc5)cc4c32)c(C)n1` [Example 14.3, 8-(2-Dimethylamino-pyrimidin-5-yl)-1-(2,6-dimethyl-pyridin-3-yl)-3-methyl-1,3-dihydro-imidazo[4,5-c]quinolin-2-one], the values for the IC50 (at PI3K alfa (read-out: EPK_PI3Kalfa/IC50); in test [1] (read-out: p-S6 IC50)) were 140 nM and 10 nM, respectively.
For `CNc1ncc(-c2ccc3ncc4c(c3c2)n(-c2ccc(C)nc2C)c(=O)n4C)cn1` [Example 14.4, 1-(2,6-Dimethyl-pyridin-3-yl)-3-methyl-8-(2-methylamino-pyrimidin-5-yl)-1,3-dihydro-imidazo[4,5-c]quinolin-2-one], in that order: 30 nM and 7 nM.
`Cc1ccc(-n2c(=O)n(C)c3cnc4ccc(-c5cnc(N)c(C(F)(F)F)c5)cc4c32)c(C)n1` [Example 14.5, 8-(6-Amino-5-trifluoromethyl-pyridin-3-yl)-1-(2,6-dimethyl-pyridin-3-yl)-3-methyl-1,3-dihydro-imidazo[4,5-c]quinolin-2-one]: the IC50 on PI3K alfa (read-out: EPK_PI3Kalfa/IC50) was determined as 5 nM; in test [1] (read-out: p-S6 IC50) it was 1 nM.

These data come from US20100311714A1, “1H-IMIDAZO[4,5-c]QUINOLINONE COMPOUNDS” (priority 2009, published 2010).
